Our source for the cell invasion, cell migration and apoptosis values is US20250302862A1, “SMALL RNA DRUG FOR INHIBITING ACTIVITY OF CANCER CELLS” (Institute of Basic Medical Sciences Chinese Academy of …, priority 2022, published 2025).

Holding throughout (type): cell-based, human
Settings in all cases: 100 nmol/L, jetPRIME, 72 h

For series [1], the system named is pancreatic cancer BXPC-3 cells. The series is described as follows: Cell invasion (Matrigel Transwell). On the procedure: 1) Matrigel basement membrane matrix was thawed on crushed ice one night before and diluted with serum-free medium to a final concentration of 200-300 ug/mL. 100 uL of the diluted Matrigel was added to each upper chamber, let stand at 37° C. for 30 min, and the supernatant was aspirated. ASPC-1 cells and BXPC-3 cells with a cell density of more than 90% in 10 cm^2 dishes were digested and resuspended with 1 mL of serum-free medium and counted. 100,000 cells (100 uL) were plated in the upper chamber, and complete medium with 10% FBS was added to the lower chamber of each chamber. […]
1) Matrigel basement membrane matrix was thawed on crushed ice one night before and diluted with serum-free medium to a final concentration of 200-300 ug/mL. […] BXPC-3 cells with a cell density of more than 90% in 10 cm^2 dishes were digested and resuspended with 1 mL of serum-free medium and counted. […]

Series [2] concerns pancreatic cancer ASPC-1 cells. The series is described as follows: Cell migration (Transwell). On the procedure: (§1) 1) ASPC-1 cells and BXPC-3 cells with a cell density of more than 90% in 10 cm^2 dishes were digested and then resuspended with 1 mL of serum-free medium and counted. 100,000 cells (100 uL) were plated in the upper chamber, and complete medium with 10% FBS was added to the lower chamber of each Transwell chamber. Transfection was performed after 12 h, and the groups (3 wells per group) were divided: • blank control group: 10 uL of jetPRIME Buffer • negative control group (NC group) and experimental group: 10 uL of jetPRIME Buffer was mixed well with 0.5 uL of jetPRIME reagent and 0.5 uL of small RNA and let stand for 15 min, and then was added to each well at a 10 uL system (final concentration 100 nmol/L) • Note: 100 uL of nuclease-free water was added to 2 nmol of small RNA dry powder for dissolution at a storage concentration of 20 umol/L
(§2) After 72 h, the medium in upper and lower chambers was discarded. The cells were fixed with paraformaldehyde at room temperature for 15 min, stained with 0.1% crystal violet at room temperature for 15 min, and rinsed with PBS. The cells in the upper chamber were gently wiped off with cotton swabs, and the chamber was dried. A Leica inverted microscope DMi8 was turned on, the 5× objective lens was selected, the parameters were adjusted and the white balance was performed following the manual. Each chamber was photographed, followed by counting and statistic processing.
as §1, with “divided as follows:” for “divided:”

The test system of series [3] is pancreatic cancer BXPC-3 cells. The series is described as follows: Cell migration (Transwell). On the procedure:
as §1, §2
as §1, with “divided as follows:” for “divided:”

Series [4] has as its system pancreatic cancer BXPC-3 cells. The series is described as follows: Apoptosis detection (Annexin V / PI). On the procedure:
(§3) 1) PANC-1 cells and BXPC-3 cells with a cell density of more than 90% in 10 cm^2 dishes were plated in 12-well plates according to the cell growth rate, and transfected after 12 h, and the groups were divided as follows: • blank control group (4 wells): 100 uL of jetPRIME Buffer per well • negative control group (NC group) and experimental group (3 wells each): 100 uL of jetPRIME Buffer was mixed well with 3 uL of jetPRIME reagent and 5 uL of small RNA for each well and let stand for 15 min, and then was added to each well at a 100 uL system (final concentration 100 nmol/L) • Note: 100 uL of nuclease-free water was added to 2 nmol of small RNA dry powder for dissolution at a storage concentration of 20 umol/L
(§4) The supernatant and cells were collected after 72 h and washed twice with pre-chilled PBS. The 4 tubes of cells in the blank control group were added respectively with: (1) 200 uL of 1× binding buffer; (2) 200 uL of 1× binding buffer and 5 uL of Annexin V stain; (3) 200 uL of 1× binding buffer and 5 uL of PI stain; (4) 200 uL of 1× binding buffer, 5 uL of Annexin V stain and 5 uL of PI stain. 200 uL of 1× binding buffer, 5 uL of Annexin V stain and 5 uL of PI stain were added to each tube of both the NC group and the experimental group. The mixture was mixed well and filtered through 300 mesh filters. The live cell population and the position of quadrant gate were selected according to the blank control group, and then the apoptosis of the NC group and the experimental group was detected.
as §3, with “mixed” for “mixed well”, “per” for “for each”

For series [5], the system named is pancreatic cancer PANC-1 cells. The series is described as follows: Apoptosis detection (Annexin V / PI). The procedure: as §3, §4
as §3, with “mixed” for “mixed well”, “per” for “for each”

For the substance “MDM-sRNA-39: small RNA derived from Maytenus hookeri, sequence GGGAUUGUAGUUCAAUUGGUCAGAGCACC (listed as RNA, chemistry not given here)”, the cell invasion entry in series [1] is “inhibits”. Also, the cell migration result in series [2] and in series [3] was “inhibits” throughout. The apoptosis result in series [4] and in series [5] was “promotes” in each case.

As for “MDM-sRNA-163: small RNA derived from Maytenus hookeri, sequence UGACUCUAGUCCGACUUUGUGAAAUGACU (listed as RNA, chemistry not given here)”, the cell invasion result in series [1] is on record as “inhibits”. For the same substance, the cell migration result in series [2] and in series [3] was “inhibits” in each case. Further, the apoptosis entry in series [4] and in series [5] was “promotes” throughout.
